Results: patent US10434134B2, “Peptide treatment for inflammation and fibrosis” (The Regents of the University of California, priority 2015, dated 2019)
Where a SMILES comes first, the peptide text is derived from it. Where no end group is shown, it is not given here. [ ]: non-standard residue; d: D form. Mpa = O=C(O)CCS

Experiments:
[1] = Plasma levels of peptide and MPR-intermediate after IV PEGylated-peptide 361332; assay type: in vivo; conditions: CD-1 mouse, n = 1
Source text: Studies using the PEGylated-peptide 361332 are provided
Levels of Peptide and MPR-Intermediate in Plasma Samples

[2] = test system: Mouse Activated Liver Myofibroblasts; test: Cell death of activated primary mouse liver myofibroblasts in culture; assay type: cell-based
[3] = test system: Human Activated Liver Myofibroblasts; test: Cell death of activated primary human liver myofibroblasts in culture; assay type: cell-based; parameters: concentration or dose not given beside the values
Source text: (§1) Assays were used in a step-wise manner to select the safest and most efficient peptides (including apoptosis assays in activated primary human liver myofibroblasts; cell-free caspase 8 activation assays; acute liver injury/fibrogenesis models; toxicology assays in highly differentiated, primary human hepatocyte cultures and in mice).

[4] = test system: primary mouse and human hepatocytes
Source text: as §1

Mouse toxicity (in vivo) = conditions: for Mouse Toxicity (in vivo): 20 mg/kg
Source text: as §1

[5] = test system: CCl4-induced acute liver injury in mice; test: Acute CCl4 liver injury and activation of liver myofibroblasts in mice (Example 1); assay type: in vivo, mouse; parameters: serum ALT: unit not given here; conditions: for minimizing acute liver injury and activation of myofibroblasts: compared with the lead PEG peptide
Procedure: FIG. 1. The therapeutic lead peptide inhibits the activation of liver myofibroblasts and liver injury that induces fibrosis following exposure to the human hepatotoxin CCl4. A single dose of CCl4 was administered to C/EBPβ-wt mice (4). Eight hours later, animals received an IP injection of the therapeutic lead peptide (5 μg of peptide linked to PEG). Animals were sacrificed at 30 hr after the CCl4 administration. The animals receiving only CCl4 had intense activation of myofibroblasts (as determined by α-SMA) (upper row) and severe liver injury (as assessed by standard clinical examination just before sacrifice); the lead peptide blocked the discoloration and granular appearance of severe liver injury. The livers of treated mice were similar to control (second row). The histopathology induced by CCl4 was activation of myofibroblasts (α-SMA), severe liver injury (H&E stain) with collapse of the architecture (Reticulin stain). The therapeutic PEG-30 kDa-peptide decreased both the activation of myofibroblasts and the injury to the liver.
To induce acute liver injury, a single dose of the human hepatotoxin Carbon Tetrachloride (CCl4) was administered to normal mice (4). Eight hours later, animals received an IP injection of the lead therapeutic PEG-30 kDa-peptide (5 μg of the peptide linked [peptide to PEG at 1:60] to the PEG-30 kDa). Animals were sacrificed after 30 hr, at the peak of hepatocyte death as measured by ALT (a clinical end-point used routinely in clinical practice and by the FDA in the evaluation of liver toxicity in human drug studies) (16). […] There was severe acute liver injury in animals receiving CCl4 but mild-to-moderate injury in animals receiving both CCl4 and the lead therapeutic compound (FIG. 1).

[6] = test system: CCl4-induced liver fibrosis in mice; test: Chronic 16-wk CCl4 mouse model of liver fibrosis (Example 2); assay type: in vivo; conditions: for decrease of liver fibrosis / Liver fibrosis, quantification of the Sirius stain (percentage fibrosis/area): CCl4 16-wk; for decrease of liver fibrosis: 7 μg IP once per week from week-8; for Liver fibrosis, quantification of the Sirius stain (percentage fibrosis/area): 7 μg peptide linked to 420 μg PEG-30 kDa once a week from week-8, n=6/group
Procedure: FIGS. 2A-2B. High efficacy of the therapeutic PEG-30 kDa-peptides in a chronic mouse model of liver fibrosis. All groups of mice (except control) received CCl4 administration for 16-wk (n=6/group). The CCl4 treatment group received only the hepatotoxin, while the other groups also received the indicated therapeutic PEG-30 kDa-peptide (7 μg of peptide linked to 420 μg PEG-30 kDa once a week) starting at week-8. FIG. 2A. Liver fibrosis was determined by quantification of the Sirius stain (percentage fibrosis/area) as described (7; 25): control (0.02+/−0.01); lead peptide (0.8+/−0.7); alternate peptide 1 (2.1+/−1.0); alternate peptide 2 (3.5+/−1.2) and CCl4 (6.7+/−1.6%). P<0.0001 for lead peptide 1 and P<0.001 for alternate peptides 1 and 2. FIG. 2B. Liver fibrosis was detected histologically by the trichrome stain for liver fibrosis as it is the clinical standard. The control animals (receiving only vehicle control) had negligible fibrosis (stage 0-1/VI); animals receiving CCl4 for 16 weeks developed severe fibrosis (stage 5/VI or 6/VI; which would be clinically significant in patients); while animals receiving CCl4 for 16 weeks and also the lead PEG-30 kDa-peptide 1 starting at week-8 had minor fibrosis (stage 1-2/VI; which would not be clinically significant in patients).
The therapeutic lead PEG-peptides underwent a systematic analysis of efficacy and safety in a classical chronic liver fibrosis model (7; 15; 24; 38). CCl4 (a human hepatotoxin) was administered to mice for 16-wk as a classical model of liver fibrosis (7). The three selected therapeutic PEG-peptides were administered once a week IP (7 μg of peptide linked to PEG) starting at week 8, once severe liver fibrosis was already established. The efficacy of the three selected PEG peptides included quantitative analysis of liver fibrosis (7). CCl4 administration to mice for 16-wk induced liver cirrhosis (FIGS. 2A and 2B). […] This mimics the treatment given for several years to a patient with established severe liver fibrosis.
The Ac-Lys-D-Ala-D-Val-Asp-NH2 was administered IP (7 μg of peptide linked to PEG-30 kDa) once/week for an additional 4 or 8 weeks. The CCl4 administration continued for 4 or 8 weeks. The Ac-Lys-D-Ala-D-Val-Asp-NH2 peptide inhibited liver fibrosis by 8-fold.
The parent peptide inhibited liver fibrosis by only 2 to 3-fold.

[7] = test system: Bleomycin-induced lung fibrosis in C/EBPβ-wt mice; test: Bleomycin mouse model of lung fibrosis, various administration routes (Example 11); assay type: in vivo; conditions: for decrease in lung fibrosis: days 10, 17 and 24
Procedure: C/EBPβ-wt mice received Bleomycin administration as described above. On day-10, once the fibrotic reaction is established, mice received i) PEG-30 kDa-Lys-DAla-DVal-Asp-NH2 intraperitoneally (IP) 10 μg of peptide linked to PEG, on days 10, 17 and 24); or ii) peptide PEG-30 kDa-Lys-DAla-DVal-Asp-NH2 by inhalation (mean particle size […]—which reaches efficiently the alveoli-, 800 μg of peptide on days 10, 17 and 24; specific inhalation parameters are shown in Table 2). The peptide was administered for less than 1 hour a day [on days 10, 17, and […]] via nose-only inhalation of the test material aerosol at a nominal concentration of 1.0 mg/L [800 μg/dose]; or iii) peptide PEG-30 kDa-Lys-DAla-DVal-Asp-NH2 by intratracheal instillation (40 μg of peptide on days 10, 17 and 24).
Control groups received sterile water instead of Bleomycin; peptide IP; peptide by inhalation; or peptide by intratracheal instillation. Animals were sacrificed on day 27. The left lung was inflated with fixative, analyzed by trichrome stain and quantified in its entirety by the Odyssey Visualization microscopy software protocol to minimize analytical errors as described previously (Ramamoorthy et al., 2009, American Journal of Physiology, Endocrinology and Metabolism 297: e392-401). The right lung was snap frozen in liquid nitrogen and used for IMH, immunoblots and qRT-PCR.

[8] = liver, 30 hr after CCl4, single IP 5 μg at 8 hr

## CC(C)[C@@H](NC(=O)[C@@H](C)NC(=O)[C@H](CCCCN)NC(=O)CCS)C(=O)N[C@@H](CC(=O)O)C(N)=O [Mpr-Lys-DAla-DVal-Asp-NH2] ([Mpa]K[dA][dV]D-NH2)
[1]; 4 hours after IV PEGylated-peptide 361332, 7.5 mg/kg peptide equivalent
  Conc. (ng/mL) in plasma: 1291 ng/mL
[1]; 8 hours after IV PEGylated-peptide 361332, 7.5 mg/kg peptide equivalent
  Conc. (ng/mL) in plasma: 900 ng/mL
[1]; 24 hours after IV PEGylated-peptide 361332, 7.5 mg/kg peptide equivalent
  Conc. (ng/mL) in plasma: 921 ng/mL
[1]; 48 hours after IV PEGylated-peptide 361332, 7.5 mg/kg peptide equivalent
  Conc. (ng/mL) in plasma: 1523 ng/mL

## Ac-Lys-Ala-Val-Asp-NH2 (Ac-KAVD-NH2) [Parent peptide, reference compound]
[2]
  Mouse Activated Liver Myofibroblasts Death Cell (%) [20 ng/ml]: 89.5%
[3]
  Human Activated Liver Myofibroblasts Death Cell (%): 80.9%
[4]
  Hepatocyte Toxicity [20 ng/ml]: No toxicity
Mouse toxicity (in vivo)
  Mouse Toxicity (in vivo): No:
Mouse toxicity (in vivo); mouse, in vivo
  toxicity issues observed in mice: no toxicity issues

## PEG-30 kDa-Lys-DAla-DVal-Asp-NH2 [Lead therapeutic peptide]
[2]
  Mouse Activated Liver Myofibroblasts Death Cell (%) [20 ng/ml]: 90.5%
[3]
  Human Activated Liver Myofibroblasts Death Cell (%): 86.2%
[4]
  Hepatocyte Toxicity [20 ng/ml]: No toxicity
Mouse toxicity (in vivo)
  Mouse Toxicity (in vivo): No:
[5]; 30 hr after CCl4, single IP treatment (5 μg peptide linked to PEG-30 kDa) 8 hr after CCl4
  serum ALT: 6,754+/−905
[5]; CCl4 plus peptide, 30 hr
  acute liver injury severity: mild-to-moderate
  expression of α-SMA in the liver (activated liver myofibroblasts): minor expression
[5]; [8]
  IL-6 mRNA: normal
  TNF-α mRNA, increase from control values: 4 fold
  albumin mRNA, decrease from control values: 2 fold
[6]
  decrease of liver fibrosis: > 8 fold
  Liver fibrosis, quantification of the Sirius stain (percentage fibrosis/area): 0.8+/−0.7%
[6]; CCl4 16 weeks, peptide starting at week-8
  Liver fibrosis stage, trichrome stain: 1-2 /VI
[7]; IP
  inhibition in lung alveolar epithelial cell apoptosis: ~60%
  surfactant protein-C (SFPC) expression by quantitative IHC: essentially normal
[7]; IP 10 μg of peptide linked to PEG
  decrease in lung fibrosis: ~60%
[7]; all treatments (IP, inhalation, intratracheal)
  lung inflammation as determined by the expression of IL-23R (marker of Th-17 cells): decreased
[7]; all treatments (IP, intratracheal instillation, inhalation), 14-day treatment
  improvement of Tidal Volume: > 35%
[7]; inhalation
  inhibition in lung alveolar epithelial cell apoptosis: ~60%
  surfactant protein-C (SFPC) expression by quantitative IHC: essentially normal
[7]; inhalation 800 μg of peptide
  decrease in lung fibrosis: ~60%
[7]; intratracheal instillation 40 μg of peptide, days 10, 17 and 24 (therapeutic positive control)
  efficacy on lung fibrosis: outstanding efficacy
[7]; three peptide formulations
  TGFβ1 by RT-PCR: decreased
  collagen α 1 by RT-PCR: decreased

## Peg-30kDa-Lys-Ala-DVal-Asp-NH2 [Alternate therapeutic peptide 2]
[2]
  Mouse Activated Liver Myofibroblasts Death Cell (%) [20 ng/ml]: 57.1%
[3]
  Human Activated Liver Myofibroblasts Death Cell (%): 72.3%
[4]
  Hepatocyte Toxicity [20 ng/ml]: No toxicity
[5]
  minimizing acute liver injury and activation of myofibroblasts: performed similarly to the lead PEG peptide
[6]
  decrease of liver fibrosis: ~2 fold
  Liver fibrosis, quantification of the Sirius stain (percentage fibrosis/area): 3.5+/−1.2%

## Peg-30kDa-Lys-DAla-Val- Asp-NH2 [Alternate therapeutic peptide 1]
[2]
  Mouse Activated Liver Myofibroblasts Death Cell (%) [20 ng/ml]: 79.9%
[3]
  Human Activated Liver Myofibroblasts Death Cell (%): 67.9%
[4]
  Hepatocyte Toxicity [20 ng/ml]: No toxicity
[5]
  minimizing acute liver injury and activation of myofibroblasts: performed similarly to the lead PEG peptide
[6]
  decrease of liver fibrosis: ~3 fold
  Liver fibrosis, quantification of the Sirius stain (percentage fibrosis/area): 2.1+/−1.0%

## [dK]AV[dD]-NH2
[3]
  Human Activated Liver Myofibroblasts Death Cell (%): 44.0%

## [dK]A[dV]D-NH2
[3]
  Human Activated Liver Myofibroblasts Death Cell (%): 30.6%
